Reference: article PMC7736581, “Activation of the IRE1 RNase through remodeling of the kinase front pocket by ATP-competitive ligands” (Nature Communications, 2020)

Columns and labels:
Test in all cases: biochemical
Set-up in all cases: Invitrogen kinase panel: Z'Lyte activity (ATP at Km) or LanthaScreen competitive ATP-site binding, percent inhibition
[1] = molecular target: T1, CamKII_alpha (Homo sapiens, UniProt Q9UQM7)
T1 construct: gene CAMK2A

[2] = molecular target: FGFR3 (Homo sapiens, UniProt P22607)
[3] = molecular target: DMPK (Homo sapiens, UniProt Q09013)
[4] = molecular target: T2, MST4 (Homo sapiens, UniProt Q9P289)
T2 construct: gene STK26

[5] = molecular target: GRK2 (Homo sapiens, UniProt P25098)
[6] = molecular target: T3, PDGFR_alpha (Homo sapiens, UniProt P16234)
T3 construct: gene PDGFRA

[7] = molecular target: T4, YSK1 (Homo sapiens, UniProt O00506)
T4 construct: gene STK25

[8] = molecular target: EphA3 (Homo sapiens, UniProt P29320)
[9] = molecular target: TEC (Homo sapiens, UniProt P42680)
[10] = molecular target: TXK (Homo sapiens, UniProt P42681)
[11] = molecular target: MAPKAPK3 (Homo sapiens, UniProt Q16644)
[12] = molecular target: T5, MSK1 (Homo sapiens, UniProt O75582)
T5 construct: gene RPS6KA5

[13] = molecular target: DYRK3 (Homo sapiens, UniProt O43781)
[14] = molecular target: CAMKK1 (Homo sapiens, UniProt Q8N5S9)
[15] = molecular target: T6, CK1_gamma1 (Homo sapiens, UniProt Q9HCP0)
T6 construct: gene CSNK1G1

[16] = molecular target: T7, DNA-PK (Homo sapiens, UniProt P78527)
T7 construct: gene PRKDC

[17] = molecular target: MAP4K4 (Homo sapiens, UniProt O95819)
[18] = molecular target: CSF1R (Homo sapiens, UniProt P07333)
[19] = molecular target: PAK3 (Homo sapiens, UniProt O75914)
[20] = molecular target: T8, JNK1_alpha1 (Homo sapiens, UniProt P45983)
T8 construct: gene MAPK8; isoform alpha1

[21] = molecular target: HIPK4 (Homo sapiens, UniProt Q8NE63)
[22] = molecular target: T9, Hyl (Homo sapiens, UniProt P42679)
T9 construct: gene MATK

[23] = molecular target: T10, Rse (Homo sapiens, UniProt Q06418)
T10 construct: gene TYRO3

[24] = molecular target: T11, ZAP-70 (Homo sapiens, UniProt P43403)
T11 construct: gene ZAP70

[25] = molecular target: MuSK (Homo sapiens, UniProt O15146)

Chain of FGFR3 (P22607 whole entry): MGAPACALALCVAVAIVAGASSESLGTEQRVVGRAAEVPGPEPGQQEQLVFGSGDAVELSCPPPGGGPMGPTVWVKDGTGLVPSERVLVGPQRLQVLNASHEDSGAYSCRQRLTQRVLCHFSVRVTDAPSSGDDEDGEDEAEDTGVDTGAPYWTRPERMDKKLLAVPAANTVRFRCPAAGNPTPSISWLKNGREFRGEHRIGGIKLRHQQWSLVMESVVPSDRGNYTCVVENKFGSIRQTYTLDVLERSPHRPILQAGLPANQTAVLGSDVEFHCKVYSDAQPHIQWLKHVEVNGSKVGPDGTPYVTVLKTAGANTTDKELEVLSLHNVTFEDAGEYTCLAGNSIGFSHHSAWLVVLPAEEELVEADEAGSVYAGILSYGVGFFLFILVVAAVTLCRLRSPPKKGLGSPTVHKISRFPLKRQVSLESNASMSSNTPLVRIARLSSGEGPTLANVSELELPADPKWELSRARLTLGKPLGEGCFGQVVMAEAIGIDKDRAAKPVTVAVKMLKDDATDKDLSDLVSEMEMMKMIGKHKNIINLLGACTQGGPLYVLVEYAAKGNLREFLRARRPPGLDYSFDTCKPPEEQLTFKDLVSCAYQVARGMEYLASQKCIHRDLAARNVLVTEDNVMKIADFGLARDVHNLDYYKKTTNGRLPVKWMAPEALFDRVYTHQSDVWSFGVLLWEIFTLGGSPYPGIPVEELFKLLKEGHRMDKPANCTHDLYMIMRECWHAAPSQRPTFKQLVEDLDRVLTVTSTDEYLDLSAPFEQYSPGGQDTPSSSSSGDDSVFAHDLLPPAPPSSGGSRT
T11 sequence (P43403 whole entry): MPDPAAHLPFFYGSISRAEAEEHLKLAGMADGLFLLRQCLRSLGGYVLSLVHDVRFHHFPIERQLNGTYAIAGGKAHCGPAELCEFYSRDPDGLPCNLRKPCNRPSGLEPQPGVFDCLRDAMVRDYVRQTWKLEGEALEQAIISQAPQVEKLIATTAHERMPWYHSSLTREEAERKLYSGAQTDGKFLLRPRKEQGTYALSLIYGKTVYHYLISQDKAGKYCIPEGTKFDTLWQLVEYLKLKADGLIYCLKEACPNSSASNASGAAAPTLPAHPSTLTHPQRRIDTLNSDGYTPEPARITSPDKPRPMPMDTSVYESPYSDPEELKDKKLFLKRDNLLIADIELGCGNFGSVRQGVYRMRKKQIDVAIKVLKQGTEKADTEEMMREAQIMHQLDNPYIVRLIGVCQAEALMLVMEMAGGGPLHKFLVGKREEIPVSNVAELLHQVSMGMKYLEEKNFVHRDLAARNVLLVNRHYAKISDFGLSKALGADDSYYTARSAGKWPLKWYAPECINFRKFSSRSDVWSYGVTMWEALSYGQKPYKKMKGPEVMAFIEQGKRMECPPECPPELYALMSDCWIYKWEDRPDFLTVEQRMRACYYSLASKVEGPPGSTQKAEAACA
Chain of PAK3 (O75914 whole entry): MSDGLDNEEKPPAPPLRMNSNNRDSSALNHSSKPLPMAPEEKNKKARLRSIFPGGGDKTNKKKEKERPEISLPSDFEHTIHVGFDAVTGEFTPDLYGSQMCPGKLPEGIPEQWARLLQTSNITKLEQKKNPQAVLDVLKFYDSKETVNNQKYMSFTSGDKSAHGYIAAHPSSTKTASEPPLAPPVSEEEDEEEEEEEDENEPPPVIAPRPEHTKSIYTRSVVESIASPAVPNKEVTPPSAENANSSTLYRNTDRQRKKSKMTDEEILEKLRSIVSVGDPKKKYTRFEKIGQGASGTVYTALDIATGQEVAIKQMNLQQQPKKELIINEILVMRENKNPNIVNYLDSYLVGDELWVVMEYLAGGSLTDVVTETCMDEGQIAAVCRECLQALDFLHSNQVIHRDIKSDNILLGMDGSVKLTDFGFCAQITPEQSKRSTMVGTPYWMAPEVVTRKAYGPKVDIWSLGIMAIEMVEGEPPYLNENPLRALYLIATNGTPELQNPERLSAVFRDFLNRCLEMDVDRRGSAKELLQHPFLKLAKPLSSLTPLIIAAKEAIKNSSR
T2 sequence (Q9P289 whole entry): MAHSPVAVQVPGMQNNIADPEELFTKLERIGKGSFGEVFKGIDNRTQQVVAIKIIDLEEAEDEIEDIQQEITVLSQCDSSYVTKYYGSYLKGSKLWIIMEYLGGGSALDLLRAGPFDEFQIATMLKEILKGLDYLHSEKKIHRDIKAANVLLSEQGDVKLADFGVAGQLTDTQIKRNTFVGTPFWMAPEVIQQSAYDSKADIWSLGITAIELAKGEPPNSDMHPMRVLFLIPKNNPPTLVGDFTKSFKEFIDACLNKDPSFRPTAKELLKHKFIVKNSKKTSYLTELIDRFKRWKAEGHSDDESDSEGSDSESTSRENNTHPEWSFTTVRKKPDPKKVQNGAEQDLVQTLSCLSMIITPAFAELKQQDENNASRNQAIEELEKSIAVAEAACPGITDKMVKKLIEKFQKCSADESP
Chain of TEC (P42680 whole entry): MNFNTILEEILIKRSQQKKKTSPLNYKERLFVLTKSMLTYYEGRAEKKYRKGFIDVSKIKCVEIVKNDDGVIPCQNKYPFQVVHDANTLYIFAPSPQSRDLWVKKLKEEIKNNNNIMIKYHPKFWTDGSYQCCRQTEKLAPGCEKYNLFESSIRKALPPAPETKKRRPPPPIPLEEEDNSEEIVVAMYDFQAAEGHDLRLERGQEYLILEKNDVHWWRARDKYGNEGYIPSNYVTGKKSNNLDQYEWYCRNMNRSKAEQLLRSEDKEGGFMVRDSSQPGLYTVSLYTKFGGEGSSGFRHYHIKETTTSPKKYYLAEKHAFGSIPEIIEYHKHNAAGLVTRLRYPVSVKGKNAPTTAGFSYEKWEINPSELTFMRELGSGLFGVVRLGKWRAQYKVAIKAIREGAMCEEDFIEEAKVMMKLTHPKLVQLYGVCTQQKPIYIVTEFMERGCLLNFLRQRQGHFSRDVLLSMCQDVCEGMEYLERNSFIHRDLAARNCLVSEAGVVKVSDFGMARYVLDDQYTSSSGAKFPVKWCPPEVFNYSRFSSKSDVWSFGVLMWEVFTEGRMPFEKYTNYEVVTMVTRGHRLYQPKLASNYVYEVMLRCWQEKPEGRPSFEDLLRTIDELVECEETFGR
T3 sequence (P16234 whole entry): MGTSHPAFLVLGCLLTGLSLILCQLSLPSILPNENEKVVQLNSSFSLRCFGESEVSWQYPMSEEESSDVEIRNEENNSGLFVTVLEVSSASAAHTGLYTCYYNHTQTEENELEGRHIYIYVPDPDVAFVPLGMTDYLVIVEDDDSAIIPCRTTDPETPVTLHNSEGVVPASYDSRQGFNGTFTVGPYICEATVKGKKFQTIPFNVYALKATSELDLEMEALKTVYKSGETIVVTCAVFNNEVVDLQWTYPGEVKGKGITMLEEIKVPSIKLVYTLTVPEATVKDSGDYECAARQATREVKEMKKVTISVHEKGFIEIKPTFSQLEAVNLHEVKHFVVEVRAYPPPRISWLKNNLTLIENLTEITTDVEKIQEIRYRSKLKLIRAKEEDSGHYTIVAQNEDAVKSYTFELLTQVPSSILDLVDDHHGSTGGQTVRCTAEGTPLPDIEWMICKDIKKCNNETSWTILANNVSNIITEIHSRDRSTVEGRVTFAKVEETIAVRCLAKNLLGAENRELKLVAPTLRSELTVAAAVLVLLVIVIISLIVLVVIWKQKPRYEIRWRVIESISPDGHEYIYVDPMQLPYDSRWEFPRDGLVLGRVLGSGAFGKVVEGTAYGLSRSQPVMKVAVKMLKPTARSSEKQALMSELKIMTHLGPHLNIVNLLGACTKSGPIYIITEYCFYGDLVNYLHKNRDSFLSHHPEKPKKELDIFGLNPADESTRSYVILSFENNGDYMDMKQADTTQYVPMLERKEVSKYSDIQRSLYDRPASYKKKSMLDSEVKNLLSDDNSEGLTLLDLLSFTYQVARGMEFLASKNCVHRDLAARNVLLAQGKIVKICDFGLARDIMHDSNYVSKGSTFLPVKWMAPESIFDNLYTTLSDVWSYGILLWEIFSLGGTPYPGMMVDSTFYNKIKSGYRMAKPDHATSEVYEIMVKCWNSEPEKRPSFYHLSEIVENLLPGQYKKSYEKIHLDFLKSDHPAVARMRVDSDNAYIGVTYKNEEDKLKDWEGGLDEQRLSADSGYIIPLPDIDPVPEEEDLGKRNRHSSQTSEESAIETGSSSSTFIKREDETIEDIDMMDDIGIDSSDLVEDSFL
Chain of GRK2 (P25098 whole entry): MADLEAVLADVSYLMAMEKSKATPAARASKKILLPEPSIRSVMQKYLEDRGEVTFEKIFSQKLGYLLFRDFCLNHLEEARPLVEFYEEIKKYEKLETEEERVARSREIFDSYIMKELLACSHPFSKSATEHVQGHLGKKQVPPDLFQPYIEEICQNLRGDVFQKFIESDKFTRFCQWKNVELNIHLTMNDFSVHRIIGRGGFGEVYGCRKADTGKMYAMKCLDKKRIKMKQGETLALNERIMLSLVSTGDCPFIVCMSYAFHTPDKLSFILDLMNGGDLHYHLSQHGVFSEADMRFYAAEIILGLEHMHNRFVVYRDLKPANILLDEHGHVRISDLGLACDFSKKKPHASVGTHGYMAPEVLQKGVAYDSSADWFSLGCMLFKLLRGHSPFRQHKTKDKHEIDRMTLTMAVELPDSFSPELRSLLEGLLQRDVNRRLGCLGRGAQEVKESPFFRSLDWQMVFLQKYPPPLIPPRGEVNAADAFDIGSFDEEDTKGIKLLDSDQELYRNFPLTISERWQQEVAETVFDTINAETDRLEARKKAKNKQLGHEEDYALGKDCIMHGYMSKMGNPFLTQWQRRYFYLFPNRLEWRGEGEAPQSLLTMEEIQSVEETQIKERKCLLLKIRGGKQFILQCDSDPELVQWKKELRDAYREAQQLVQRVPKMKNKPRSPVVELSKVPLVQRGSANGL

SMILES | inhibition at 1 µM [1] [%] | inhibition at 1 µM [2] [%] | inhibition at 1 µM [3] [%] | inhibition at 1 µM [4] [%] | inhibition at 1 µM [5] [%] | inhibition at 1 µM [6] [%] | inhibition at 1 µM [7] [%] | inhibition at 1 µM [8] [%] | inhibition at 1 µM [9] [%] | inhibition at 1 µM [10] [%] | inhibition at 1 µM [11] [%] | inhibition at 1 µM [12] [%] | inhibition at 1 µM [13] [%] | inhibition at 1 µM [14] [%] | inhibition at 1 µM [15] [%] | inhibition at 1 µM [16] [%] | inhibition at 1 µM [17] [%] | inhibition at 1 µM [18] [%] | inhibition at 1 µM [19] [%] | inhibition at 1 µM [20] [%] | also measured
CCOC(=O)Nc1cccc2c(Oc3ncccc3-c3ccnc(N[C@H]4CCCNC4)n3)c(C)ccc12 [G-1749] | -17.5 | -6 | 0 | -12.5 | 2 | -3.5 | 2.5 | 1 | 4 | 2 | 12.5 | -3 | 3.5 | 3.5 | -1.5 | 6.5 | 31 | 7 | 6.5 | 53.5 | inhibition at 1 µM [21]: 3.8%; inhibition at 1 µM [22]: 6.5%; inhibition at 1 µM [23]: 8.5%; inhibition at 1 µM [24]: 3%; inhibition at 1 µM [25]: 13.5%
CC#CC(=O)Nc1cccc2c(Oc3ncccc3-c3ccnc(N[C@H]4CCCNC4)n3)c(C)ccc12 [G-7658] | -16 | -5 | 1.5 | -3.5 | 1 | -0.5 | -3 | 4.5 | 3 | 2 | 8 | -6 | 1 | 5.5 | 9 | 11 | 21.5 | -7.5 | 5 | 72.5 | inhibition at 1 µM [21]: 8%; inhibition at 1 µM [22]: 6.5%; inhibition at 1 µM [23]: 6.5%; inhibition at 1 µM [24]: 4%; inhibition at 1 µM [25]: 9.5%
